Experiment [1] has as its system non-mucoid P. aeruginosa strains from clinically relevant O-antigen serotypes. The experiment is described as follows: OPK assay, non-mucoid clinical isolates. It is filed as cell-based, Pseudomonas aeruginosa. The settings on record: FIG. 2C. Here is the method: This example describes the evaluation of prioritized human IgG1 antibodies to promote OPK of P. aeruginosa. […] OPK assays were performed as described in (DiGiandomenico, A., et al., Infect Immun 72, 7012-7021 (2004)), with modifications. Briefly, assays were performed in 96-well plates using 0.025 ml of each OPK component; P. aeruginosa strains; diluted baby rabbit serum; differentiated HL-60 cells; and monoclonal antibody. In some OPK assays, luminescent P. aeruginosa strains, which were constructed as described (Choi, K. H., et al., Nat Methods 2, 443-448 (2005)), were used. Luminescent OPK assays were performed as described above but with determination of relative luciferase units (RLUs) using a Perkin Elmer ENVISION Multilabel plate reader (Perkin Elmer).
The ability of Cam-003 to mediate OPK activity against representative non-mucoid strains from clinically relevant O-antigen serotypes and against mucoid P. aeruginosa strains which were derived from cystic fibrosis patients was evaluated.

The test system of experiment [2] is P. aeruginosa PAO1.lux association with A549 cells. The experiment in a line: Cell attachment assay, PAO1.lux to A549 cells. The class given is cell-based, Pseudomonas aeruginosa. To be noted: MOI of 10, FIG. 4, FIG. 9B. How it is done: Anti-Psl antibodies were added to a confluent monolayer of A549 cells (an adenocarcinoma human alveolar basal epithelial cell line) grown in opaque 96-well plates (Nunc Nunclon Delta). Log-phase luminescent P. aeruginosa PAO1 strain (PAO1.lux) was added at an MOI of 10. After incubation of PAO1.lux with A549 cells at 37° C. for 1 hour, the A549 cells were washed, followed by addition of LB+0.5% glucose. Bacteria were quantified following a brief incubation at 37° C. as performed in the OPK assay described in Example 2. Measurements from wells without A549 cells were used to correct for non-specific binding.

Experiment [3] has as its system P. aeruginosa strain 6294. The experiment is described as follows: P. aeruginosa sepsis model. The class given is in vivo, C57Bl/6 mice. Here is the method: C57Bl/6 mice (10 per group) were dosed with mAb or PMB-mAb conjugates i.p (10, 1 and 0.1 mg/kg) 6 h prior to i.p. challenge with LD80-100 dose of P. aeruginosa strain 6294 (4E7 CFU). Data from two studies was combined in this analysis. Survival was monitored over 72 h. Combined results of two studies are shown in FIGS. 21A-C: Most control mice dosed with A7 or buffer died by 24 h. […] Conversely, the conjugates were less protective than CAM-003 at the low dose of 0.1 mg/kg, and protective activity correlated with in vitro OPK activity of the conjugates (WT>SM>DM>TM).

The record followed here is patent publication US10370436B2, “Anti-pseudomonas Psl binding molecules and uses thereof” (priority 2011, dated 2019).

Regarding “Cam-003: human IgG1 anti-Psl monoclonal antibody, VH SEQ ID NO: 1 and VL SEQ ID NO: 2”, the OPK activity result in experiment [1] is reported as “mediated potent OPK of all non-mucoid clinical isolates tested”. The “inhibition of association of PAO1.lux to A549 cells” value in experiment [2] was “most active at inhibiting P. aeruginosa cell attachment to A549 lung epithelial cells”. Further, in experiment [3] (10, 1 and 0.1 mg/kg), the “dose relation of protective activity” value is recorded as “inversely correlated with dose”. Also, in experiment [3] (10, 1 and 0.1 mg/kg i.p. 6 h prior to i.p. challenge, survival over 72 h, FIGS. 21A-C), the protection is given as 50-90%.
